Results taken from the supplement of paper PMC8372320.

Assay: photocatalytic hydrogen evolution rate (per 5 mg catalyst); higher = more photocatalytic H2 evolution; extreme values may be limits of the assay
Conditions: catalyst mass (mg): 5; Pt cocatalyst (wt%): 3; sacrificial medium: triethylamine/methanol/water 1:1:1
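Also: aromatic molecules in triethylamine/methanol/water with Pt photoreduced in situ, irradiated 3 h under a 1 sun AM 1.5G solar simulator (350–1000 nm), H2 quantified by headspace gas chromatography; listed molecule itself used as the photocatalyst at 5 mg per vial.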

SMILES | photocatalytic hydrogen evolution rate [µmol/h]
COc1cc(C#N)c(C#N)cc1OC | 0
Nc1ccccc1C(=O)O | 0.00138
O=Cc1cc(Br)ccc1Br | 0.957
CC(=O)c1ccc(C#N)cc1 | 5.7
O=C1CCc2ccccc21 | 0.101
O=C(O)c1cc(Br)ccc1Br | 0
c1ccc2c(c1)ccc1c3ccccc3ccc21 | 0
Brc1cccc(-c2cccc(Br)n2)n1 | 0
CCCCCCCCC1(CCCCCCCC)c2cc(B3OC(C)(C)C(C)(C)O3)ccc2-c2ccc(B3OC(C)(C)C(C)(C)O3)cc21 | 0.0342
O=Cc1ccc(O)cc1 | 0.00783
c1ccc2c(c1)Cc1ccccc1-2 | 0
c1cn[nH]c1 | 0
N#Cc1ccc(C=O)cn1 | 0
Oc1c(Br)cc(Br)c(O)c1Br | 0
O=C1C=CC(=O)N1c1ccccc1 | 0
O=C1C=CC(=O)c2ccccc21 | 0
N#CCc1ccc(CC#N)cc1 | 0
O=Cc1ccc(-c2cc(-c3ccc(C=O)cc3)c3ccc4c(-c5ccc(C=O)cc5)cc(-c5ccc(C=O)cc5)c5ccc2c3c54)cc1 | 3.19
Brc1ccc2c3ccc(Br)cc3c3ccccc3c2c1 | 0
O=Cc1ccc(C=O)cc1 | 0.0145
Oc1ccc(I)cc1 | 0
Brc1ccc(-c2ccc(Br)s2)s1 | 0
N#Cc1cc(Br)cs1 | 0

SMILES | photocatalytic hydrogen evolution rate [µmol/h]
O=C1c2cccc(O)c2C(=O)c2cccc(O)c21 | 0
Brc1cc2ccc3cc(Br)cc4ccc(c1)c2c34 | 0
c1ccc(-c2nc(-c3ccccc3)nc(-c3ccc(-c4ccc(-c5nc(-c6ccccc6)nc(-c6ccccc6)n5)cc4)cc3)n2)cc1 | 0
O=Cc1ccc2nccnc2c1 | 0
Fc1ccc(-c2nc(-c3ccccc3)nc(-c3ccccc3)n2)cc1 | 0
Nc1ccc(-c2nnc(-c3ccc(N)cc3)nn2)cc1 | 0
O=Cc1cc(O)c(O)cc1O | 0
O=Cc1ccc(N2CCCC2)cc1 | 0.173
O=Cc1ccc(N(c2ccccc2)c2ccccc2)cc1 | 0.317
N#Cc1cc(N)ccc1Cl | 0
Cc1cc(C#N)c(C)cc1C#N | 0
Nc1ccc(-c2ccc(N)c(O)c2)cc1O | 0.104
BrCc1ccc(-c2ccc(CBr)cc2)cc1 | 0
Cc1cc(C#N)ccc1C#N | 0
Cc1cc(N)ccc1C#N | 0
Cc1[nH]c(C)c(C=O)c1C=O | 0
N#CCC(=O)c1ccc(Br)cc1 | 0
c1ccc(-c2nc3ccccc3[nH]2)cc1 | 0
N#CCc1ccc(C=O)cc1 | 4.22
Nc1cc(Br)ccc1-c1ccc(Br)cc1N | 0.0732
O=Cc1sc(Br)nc1Br | 0
Brc1ccc(-c2cc(-c3ccc(Br)cc3)cc(-c3ccc(Br)cc3)c2)cc1 | 0
COC(OC)(C(=O)c1ccccc1)c1ccccc1 | 1.18
